In this data set the test system is genomic DNA from the bone marrow of TG mouse. As to the kind of experiment: Mutation analysis of mouse bone marrow genomic DNA by sequencing with information on complementary strands. Format: in vivo, mouse (C57BL/6JJmsSlc-Tg (gpt delta)). The settings on record: ENU 150 mg/kg/day intraperitoneally for 5 days, n=2. The procedure:
Male TG mice which were 7 to 9 weeks old at initiation of administration were used. ENU (produced by Toronto Research Chemicals, Inc.) was dissolved in saline to a concentration of 15.0 mg/mL. By using a plastic syringe and a 25 G injection needle, […] was intraperitoneally administered to the mice once per day (ENU 150 mg/kg/day) for 5 days (ENU group). Saline was administered to a control group. Seven days after the final administration, the animals were each euthanized to resect the femur, and genomic DNA was extracted from the bone marrow by using a REcoverEase DNA Isolation Kit (produced by Agilent Technologies) in accordance with the recommended protocol. The double-stranded DNA concentration of the resulting DNA was measured by using a Qubit3.0 Fluorometer (produced by Thermo Fisher Scientific) with a Qubit™ dsDNA BR Assay Kit attached thereto. […]
Each of the libraries prepared in 3) was subjected to sequencing by using a HiSeq 2500 (produced by Illumina, Inc.), where the read length was set to 2*100 bp. […]
Edit of raw read sequences acquired through sequencing, extraction of information on complementary strands, and mutation analysis were performed by using the procedure of 5) in Example 2 in accordance with the analysis flow illustrated above in Schematic Diagrams 3 and 4. […]

As for `CCN(N=O)C(N)=O` [ENU, ethylnitrosourea], the “Frequencies of A:T>T:A, A:T>G:C, and G:C>A:T versus control group” value is on record as “significantly higher”.

Source of the values: patent publication US20240254547A1, “HIGHLY ACCURATE […]” (KAO CORPORATION, priority 2018, published 2024).
